Measurements published in EPA's ToxValDB 9.5 (doi:10.2903/j.efsa.2005.43r).
≈ marks a conversion by molar mass, not a printed value.

Tests used:
[1] = test system: Oncorhynchus mykiss; settings: acute; duration: 96 hours; mortality
[2] = test system: Tagia sp.; settings: acute; duration: 14 days; mortality
[3] = test system: Rattus norvegicus
[4] = test system: Canidae; settings: chronic; duration: 1 years; oral; Dog Other; hematological
[5] = test system: Apis mellifera; settings: acute, duration: 24 hours, mortality
[6] = test system: Daphnia magna; settings: chronic/long-term; duration: 21 days; reproduction
[7] = test system: Pimephales promelas; settings: chronic/long-term; duration: 36 days
[8] = test system: Anas platyrhynchos; settings: reproductive
[9] = test system: Colinus virginianus; settings: acute, oral, mortality
[10] = test system: Mesograpta sp.; assay: LR50; higher = less toxic; settings: chronic/long-term, mortality

Cc1nc(N(C)C)nc(OC(=O)N(C)C)c1C [Pirimicarb]
LC50 [1]: 79 mg/L (≈ 332 µM) | LC50 [2]: > 60 mg/kg | LD50 ([3]; acute, oral, F, mortality): 142 mg/kg | NOAEL ([3]; acute, oral, gavage, clinical signs): 10 mg/kg-day | NOEC ([3]; reproduction developmental): 81.8 mg/kg-day | NOAEL [4]: 3.5 mg/kg-day | LD50 ([5]; dermal): 53.1 µg/piece | LD50 ([5]; oral, unspecified): 4 µg/piece | NOEC [6]: 0.0009 mg/L | NOEC [7]: 10 mg/L | NOEC [8]: 12.1 mg/kg-day | LC50 ([9]; duration: 5 days, diet): 394 mg/kg-day | LD50 ([9]; gavage): 20.9 mg/kg | LR50 ([10]; duration: 16 days): 14.6 g/ha | LR50 ([10]; duration: 28 days): 14.6 g/ha
